The results in this text go back to patent US20260356830A1, “COMPOUNDS FOR MODULATING RET PROTEIN” (Bristol-Myers Squibb Company, priority 2022, published 2026).

Some results are limits rather than exact numbers.

The assay has as its target T1, CCDC6-RET (Homo sapiens, UniProt P07949+Q16204+Q96SW2).
T1 construct: CCDC6 (natural N-terminal fusion partner, UniProt Q16204); endogenous in cells; host or cells: TPC-1 (parental, papillary thyroid carcinoma)
Put plainly: Cellular RET degradation, AlphaLISA, TPC-1 cell line. Type of assay: cell-based. The following applies: for Dmax: TPC1, human, 24 h, read-out: Cell Density TPC-1/CCDC6-RET Ymax %; for DC50: read-out: Cell Density TPC-1/CCDC6-RET DC50, half-maximal degradation concentration, TPC-1 (CCDC6-RET), 24 hrs. The procedure, abridged: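 TPC-1 papillary thyroid carcinoma cells (endogenous CCDC6-RET) in DMEM with 2% FBS, compound-treated 24 h at 37 °C. RET in lysates quantified by AlphaLISA luminescence, normalized to media-only and DMSO wells; DC50 and maximal degradation from 4-parameter logistic fit.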
(Alpha assays give light when donor and acceptor beads are brought close together.)

T1 sequence (Q16204+P07949 fused): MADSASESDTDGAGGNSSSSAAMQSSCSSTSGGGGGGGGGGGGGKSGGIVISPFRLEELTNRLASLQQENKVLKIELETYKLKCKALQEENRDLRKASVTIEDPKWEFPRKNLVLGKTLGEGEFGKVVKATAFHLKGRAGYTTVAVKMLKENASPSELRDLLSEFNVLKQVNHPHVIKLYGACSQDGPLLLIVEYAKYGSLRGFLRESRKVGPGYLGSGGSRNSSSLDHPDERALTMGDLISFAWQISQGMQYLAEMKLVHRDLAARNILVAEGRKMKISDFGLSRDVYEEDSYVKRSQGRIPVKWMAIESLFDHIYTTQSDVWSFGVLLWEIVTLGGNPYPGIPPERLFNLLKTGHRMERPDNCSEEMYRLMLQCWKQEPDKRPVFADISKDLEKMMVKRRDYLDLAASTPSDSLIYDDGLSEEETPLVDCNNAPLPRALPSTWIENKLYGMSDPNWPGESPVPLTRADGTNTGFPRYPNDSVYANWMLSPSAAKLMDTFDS
T1 sequence (Q96SW2 whole entry, the tested form may be a part): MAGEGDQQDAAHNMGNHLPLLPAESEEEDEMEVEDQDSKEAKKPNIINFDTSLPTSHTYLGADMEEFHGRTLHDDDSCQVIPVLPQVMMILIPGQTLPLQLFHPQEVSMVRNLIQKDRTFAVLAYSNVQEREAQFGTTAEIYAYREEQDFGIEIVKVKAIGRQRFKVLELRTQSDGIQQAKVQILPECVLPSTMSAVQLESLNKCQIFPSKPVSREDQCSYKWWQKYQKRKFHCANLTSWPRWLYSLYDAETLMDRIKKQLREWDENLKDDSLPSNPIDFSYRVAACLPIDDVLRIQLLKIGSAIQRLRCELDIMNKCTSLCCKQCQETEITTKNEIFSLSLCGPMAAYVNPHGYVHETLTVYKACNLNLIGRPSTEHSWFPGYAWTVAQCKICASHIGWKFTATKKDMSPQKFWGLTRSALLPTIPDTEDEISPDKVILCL
T1 sequence (Q16531 whole entry partner, the tested form may be a part): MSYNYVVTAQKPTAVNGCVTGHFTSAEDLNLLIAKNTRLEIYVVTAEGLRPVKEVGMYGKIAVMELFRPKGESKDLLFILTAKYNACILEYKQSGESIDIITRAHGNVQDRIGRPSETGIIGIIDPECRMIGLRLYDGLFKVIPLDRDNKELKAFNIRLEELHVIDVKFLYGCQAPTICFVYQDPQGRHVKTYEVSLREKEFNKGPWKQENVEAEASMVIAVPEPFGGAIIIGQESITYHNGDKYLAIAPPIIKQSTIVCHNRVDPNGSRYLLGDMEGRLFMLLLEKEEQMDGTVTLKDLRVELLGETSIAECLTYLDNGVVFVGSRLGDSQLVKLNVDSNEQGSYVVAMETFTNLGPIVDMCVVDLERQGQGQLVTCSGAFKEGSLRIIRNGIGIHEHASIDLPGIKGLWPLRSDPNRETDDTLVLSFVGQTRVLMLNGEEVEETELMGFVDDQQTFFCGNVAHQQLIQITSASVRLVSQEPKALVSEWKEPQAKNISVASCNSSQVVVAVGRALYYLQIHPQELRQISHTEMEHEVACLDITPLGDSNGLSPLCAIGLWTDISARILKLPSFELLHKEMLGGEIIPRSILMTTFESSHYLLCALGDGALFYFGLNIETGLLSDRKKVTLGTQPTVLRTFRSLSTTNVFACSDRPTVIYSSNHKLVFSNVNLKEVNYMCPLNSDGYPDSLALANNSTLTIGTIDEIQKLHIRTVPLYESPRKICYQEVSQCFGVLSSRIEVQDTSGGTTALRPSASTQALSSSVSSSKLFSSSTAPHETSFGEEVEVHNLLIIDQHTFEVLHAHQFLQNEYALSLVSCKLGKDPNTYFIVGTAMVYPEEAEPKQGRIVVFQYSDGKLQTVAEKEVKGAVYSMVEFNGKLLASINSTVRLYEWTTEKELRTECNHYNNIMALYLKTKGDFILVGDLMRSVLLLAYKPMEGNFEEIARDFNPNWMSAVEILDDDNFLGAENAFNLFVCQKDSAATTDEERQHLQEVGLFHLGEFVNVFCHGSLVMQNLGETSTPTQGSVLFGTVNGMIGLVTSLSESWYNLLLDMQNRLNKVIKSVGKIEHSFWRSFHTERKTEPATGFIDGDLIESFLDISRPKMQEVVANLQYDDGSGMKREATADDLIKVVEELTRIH

As to `CCOc1cc(-c2ccc(N3CCC(COCc4cn(CCCCN5CCN(c6ccc7c(c6)CN(C6CCC(=O)NC6=O)C7=O)CC5)nn4)(NC(=O)c4cc(F)ccc4F)CC3)nc2)c2c(C#N)cnn2c1` (stereo not drawn) [Example 48, N-[1-[5-(3-cyano-6-ethoxy-pyrazolo[1,5-a]pyridin-4-yl)-2-pyridyl]-4-[[1-[4-[4-[2-(2,6-dioxo-3-piperidyl)-1-oxo-isoindolin-5-yl]piperazin-1-yl]butyl]triazol-4-yl]methoxymethyl]-4-piperidyl]-2,5-difluoro-benzamide], the Dmax is above 90% and the DC50 is 0.002 to 0.01 µM.
On to `CCOc1cc(-c2ccc(N3CCC(NC(=O)c4cc(F)ccc4F)(C(=O)NCCCCCCN4CCC(c5ccc6c(c5)C(=O)N(C5CCC(=O)NC5=O)C6)CC4)CC3)nc2)c2c(C#N)cnn2c1` (stereo not drawn) [Example 163, 1-(5-{3-cyano-6-ethoxypyrazolo[1,5-a]pyridin-4-yl}pyridin-2-yl)-4-(2,5-difluorobenzamido)-N-(6-{4-[2-(2,6-dioxopiperidin-3-yl)-3-oxo-2,3-dihydro-1H-isoindol-5-yl]piperidin-1-yl}hexyl)piperidine-4-carboxamide], for which the Dmax is 60 to 90% and the DC50 was in the range of 0.002 to 0.01 µM.
For `CCOc1cc(-c2ccc(N3CCC(CN4CCN(C(=O)CCCN5CCN(c6ccc7c(c6)CN(C6CCC(=O)NC6=O)C7=O)CC5)CC4)(NC(=O)c4cc(F)ccc4F)CC3)nc2)c2c(C#N)cnn2c1` (stereo not drawn) [Example 14, N-(1-(5-(3-cyano-6-ethoxypyrazolo[1,5-a]pyridin-4-yl)pyridin-2-yl)-4-((4-(4-(4-(2-(2,6-dioxopiperidin-3-yl)-1-oxoisoindolin-5-yl)piperazin-1-yl)butanoyl)piperazin-1-yl)methyl)piperidin-4-yl)-2,5-difluorobenzamide], the Dmax is 60 to 90% and the DC50 was in the range of 0.002 to 0.01 µM.
As for `CCOc1cc(-c2ccc(N3CCC(CN4CCC(N5CC(N6CCC(c7ccc8c(c7)C(=O)N(C7CCC(=O)NC7=O)C8)CC6)C5)CC4)(NC(=O)c4cc(F)ccc4F)CC3)nc2)c2c(C#N)cnn2c1` (stereo not drawn) [Example 71, N-(1-(5-(3-cyano-6-ethoxypyrazolo[1,5-a]pyridin-4-yl)pyridin-2-yl)-4-((4-(3-(4-(2-(2,6-dioxopiperidin-3-yl)-3-oxoisoindolin-5-yl)piperidin-1-yl)azetidin-1-yl)piperidin-1-yl)methyl)piperidin-4-yl)-2,5-difluorobenzamide], the Dmax is above 90% and the DC50 is below 0.002 µM.
`CCOc1cc(-c2ccc(N3CCC(C)(CN4CCN(C(=O)CCCCCCN5CCN(c6ccc7c(c6)CN(C6CCC(=O)NC6=O)C7=O)CC5)CC4)CC3)nc2)c2c(C#N)cnn2c1` (stereo not drawn) [Example 128, 4-[6-(4-{[4-(7-{4-[2-(2,6-dioxopiperidin-3-yl)-1-oxo-2,3-dihydro-1H-isoindol-5-yl]piperazin-1-yl}heptanoyl)piperazin-1-yl]methyl}-4-methylpiperidin-1-yl)pyridin-3-yl]-6-ethoxypyrazolo[1,5-a]pyridine-3-carbonitrile]: the Dmax is 60 to 90% and the DC50 lay in the range of 0.1 to 2 µM.
On the same counts, the results for `CCOc1cc(-c2ccc(N3CCC(COCC(=O)NCCCCN4CCN(c5ccc6c(c5)CN(C5CCC(=O)NC5=O)C6=O)CC4)(NC(=O)c4cc(F)ccc4F)CC3)nc2)c2c(C#N)cnn2c1` (stereo not drawn) [Example 31, N-[1-[5-(3-cyano-6-ethoxy-pyrazolo[1,5-a]pyridin-4-yl)-2-pyridyl]-4-[[2-[4-[4-[2-(2,6-dioxo-3-piperidyl)-1-oxo-isoindolin-5-yl]piperazin-1-yl]butylamino]-2-oxo-ethoxy]methyl]-4-piperidyl]-2,5-difluoro-benzamide] are 60 to 90% and 0.002 to 0.01 µM.
For the compound `CCOc1cc(-c2ccc(N3CCC(NC(=O)c4cc(F)ccc4F)(C(=O)NCCCCN4CCC(c5ccc6c(c5)C(=O)N(C5CCC(=O)NC5=O)C6)CC4)CC3)nc2)c2c(C#N)cnn2c1` (stereo not drawn) [Example 162, 1-(5-{3-cyano-6-ethoxypyrazolo[1,5-a]pyridin-4-yl}pyridin-2-yl)-4-(2,5-difluorobenzamido)-N-(4-{4-[2-(2,6-dioxopiperidin-3-yl)-3-oxo-2,3-dihydro-1H-isoindol-5-yl]piperidin-1-yl}butyl)piperidine-4-carboxamide], the Dmax was 60 to 90% and the DC50 was 0.01 to 0.1 µM.
Turning to `CCOc1cc(-c2ccc(N3CCC(CN(C(=O)CCN4CCN(c5ccc6c(c5)C(=O)N(C5CCC(=O)NC5=O)C6)CC4)C(C)C)(NC(=O)c4cc(F)ccc4F)CC3)nc2)c2c(C#N)cnn2c1` (stereo not drawn) [Example 167, N-[1-(5-{3-cyano-6-ethoxypyrazolo[1,5-a]pyridin-4-yl}pyridin-2-yl)-4-[(3-{4-[2-(2,6-dioxopiperidin-3-yl)-3-oxo-2,3-dihydro-1H-isoindol-5-yl]piperazin-1-yl}-N-(propan-2-yl)propanamido)methyl]piperidin-4-yl]-2,5-difluorobenzamide], the Dmax was 60 to 90% and the DC50 was 0.002 to 0.01 µM.
On the same counts, the results for `CCOc1cc(-c2ccc(N3CCC(CN4CCN(C(=O)CN5CCC(c6ccc7c(N8CCC(=O)NC8=O)nn(C)c7c6)CC5)CC4)(NC(=O)c4cc(F)ccc4F)CC3)nc2)c2c(C#N)cnn2c1` [Example 44, N-(1-(5-(3-cyano-6-ethoxypyrazolo[1,5-a]pyridin-4-yl)pyridin-2-yl)-4-((4-(2-(4-(3-(2,4-dioxotetrahydropyrimidin-1(2H)-yl)-1-methyl-1H-indazol-6-yl)piperidin-1-yl)acetyl)piperazin-1-yl)methyl)piperidin-4-yl)-2,5-difluorobenzamide] are 60 to 90% and below 0.002 µM.
In the case of `CCOc1cc(-c2ccc(N3CCC(CN4CCN(C(=O)CCN5CCC(c6ccc7c(c6)C(=O)N(C6CCC(=O)NC6=O)C7)CC5)CC4)(NC(=O)C4CC4)CC3)nc2)c2c(C#N)cnn2c1` (stereo not drawn) [Example 9, N-(1-(5-(3-cyano-6-ethoxypyrazolo[1,5-a]pyridin-4-yl)pyridin-2-yl)-4-((4-(3-(4-(2-(2,6-dioxopiperidin-3-yl)-3-oxoisoindolin-5-yl)piperidin-1-yl)propanoyl)piperazin-1-yl)methyl)piperidin-4-yl)cyclopropanecarboxamide], the Dmax was above 90% and the DC50 fell in the range of 0.002 to 0.01 µM.
Consider `CCOc1cc(-c2ccc(N3CCC(CN4CCN(C(=O)CN5CCN(c6ccc7c(c6)CN(C6CCC(=O)NC6=O)C7=O)CC5)CC4)(NC(=O)c4cc(F)ccc4F)CC3)nc2)c2c(C#N)cnn2c1` (stereo not drawn) [Example 6, N-(1-(5-(3-cyano-6-ethoxypyrazolo[1,5-a]pyridin-4-yl)pyridin-2-yl)-4-((4-(2-(4-(2-(2,6-dioxopiperidin-3-yl)-1-oxoisoindolin-5-yl)piperazin-1-yl)acetyl)piperazin-1-yl)methyl)piperidin-4-yl)-2,5-difluorobenzamide], for which the Dmax is above 90% and the DC50 is 0.002 to 0.01 µM.
On to `CCOc1cc(-c2ccc(N3CCC(CN4CCN(C(=O)C5CC6(C5)CC(C(=O)N5CCN(c7ccc8c(c7)C(=O)N(C7CCC(=O)NC7=O)C8)CC5)C6)CC4)(NC(=O)c4cc(F)ccc4F)CC3)nc2)c2c(C#N)cnn2c1` (stereo not drawn) [Example 86, N-[1-(5-{3-cyano-6-ethoxypyrazolo[1,5-a]pyridin-4-yl}pyridin-2-yl)-4-{[4-(6-{4-[2-(2,6-dioxopiperidin-3-yl)-3-oxo-2,3-dihydro-1H-isoindol-5-yl]piperazine-1-carbonyl}spiro[3.3]heptane-2-carbonyl)piperazin-1-yl]methyl}piperidin-4-yl]-2,5-difluorobenzamide], for which the Dmax is above 90% and the DC50 is below 0.002 µM.
